Reference: patent US20120288495A1, “THERAPEUTIC COMPOSITIONS AND METHODS” (BIOTHERA, INC., priority 2009, published 2012)

Tests used:
[1] = tested on: IL-1, TNF, and leukotrienes; settings: cited from earlier work
[2] = Physicochemical properties of purified soluble β-glucan
Text: The soluble β-glucan has an average molecular weight between about 120,000 Da and about 205,000 Da and a molecular weight distribution (polydispersity) of not more than 2.5 as determined by HR-GPC with multiple angle light scattering (HR-GPC/MALS) and differential refractive index detection. Powder X-ray diffraction and magic-angle spinning NMR determined that the product consists of polymeric chains associated into triple helices. The soluble β-glucan is typically uncharged and therefore has no pKa.

[3] = tested on: neutrophils and monocytes; settings: cited from earlier work
[4] = tested on: HCT-116 colorectal carcinoma; assay: LIVE/DEAD cell mediated cytotoxicity assay: PBMC killing of KRAS-mutated tumor cells; assay type: cell-based, human
Experimental: The tumor target line HCT-116 colorectal carcinoma (American Type Culture Collection, Manassas, Va., ATCC No. CCL-247) was maintained in McCoy's 5A media supplemented with 10% fetal calf serum (Hyclone Laboratories, Inc., Logan, Utah).
Cytotoxicity was measured with the LIVE/DEAD Cell Mediated Cytotoxicity Kit (Invitrogen, Carlsbad, Calif.) according to manufacturer's instructions. Briefly, the HCT-116 target cells were stained with 1:80 dilution of DiOC18 in Phosphate Buffered Saline (PBS, Mediatech Inc. Manassas, Va.) and incubated at 37° C. for 30 minutes. The cells were then washed twice in PBS and resuspended at 2×10^6 cells/mL in complete media containing 10% human serum.
DiOC labeled target cells incubated with ERBITUX dilutions for 30 minutes at 37° C. In each well of a 96-well plate, 1.25×10^6 freshly isolated peripheral blood mononuclear cells (PBMC) along with IMPRIME-PGG dilution or 50 ng/ml IL-2 (R&D Systems, Minneapolis, Minn.) in of total volume of 100 μl media incubated at 37° C. for 30 minutes. 5×10^4 targets added to wells in 25 μl of media and assay incubated overnight at 37° C. Following incubation, target cell viability measured by staining with 125 μl of propidium iodide (PI) viability reagent diluted 1:5000 from stock solution provided in the assay kit. Cells incubated for 30 minutes at 37° C. before analysis on LSR II flow cytometer (BD Biosciences, San Jose, Calif.) to determine percentage of DiOC stained targets that intercalate the PI stain, indicating cell death.

pKa [2]: has no pKa
solubility in water [2]: soluble in water independent of pH
Substance: poly-(1-6)-β-D-glucopyranosyl-(1-3)-β-D-glucopyranose [soluble β-glucan]
production of biochemical mediators (IL-1, TNF, leukotrienes) [1]: does not stimulate the production of biochemical mediators
number of neutrophils and monocytes and their direct antitumor activity (phagocytosis and microbial killing) [3]: increase the number of neutrophils and monocytes as well as their direct antitumor activity
ability of human PBMCs to kill KRAS-mutated tumor cells ([4]; FIG. 2, flow cytometry data, in vitro): enhances the ability of human peripheral blood mononuclear cells (PBMCs) to kill KRAS-mutated tumor cells in vitro
ability of human PBMCs to kill KRAS-mutated tumor cells ([4]; FIG. 3, in vitro, N=1, E:T=25:1): enhances the ability of human peripheral blood mononuclear cells (PBMCs) to kill KRAS-mutated tumor cells in vitro
antitumor activity in the presence of an EGF-r antagonist antibody ([4]; FIG. 4, with ERBITUX, N=1, E:T=25:1): exhibits greater antitumor activity in the presence of an EGF-r antagonist antibody
